How the values were obtained:
SDI 1 mRNA = SDI 1 mRNA in H1299 cells with or without p53 expression vector; type: cell-based, human; settings: 100 μM, 24 hours
Protocol: Preconfluent cultures of H1299 cells were transfected with an expression vector containing the wild type human p53 cDNA under the control of the human cytomegalovirus promoter/enhancer (Dr. Bert Vogelstein, Johns Hopkins Oncology Center). Control transfections were performed using the vector from which the p53 cDNA was removed. Transfections were carried out using the Lipofectin Reagent Kit (GIBCO/BRL). One day after transfection, cells were collected for Western blot analysis using 20 μg total protein as described (Yaar, M. et al., J. Clin. Invest. 94:1550–1562 (1994)). p53 was detected using mAb 421, anti-mouse Ig linked to horseradish peroxidase (Amersham, Arlington Heights, Ill.) and an ECL-kit (Amersham), following the directions of the manufacturer. At the time of protein collection, duplicate cultures of H1299 cells transfected with the p53 expression vector (designated “p53”) or control vector (“Ctrl”) were given either diluent (DMEM) or 100 μM pTpT. After 24 hours, the cells were collected, processed for RNA isolation and Northern blot analysis with an SDI 1 cDNA probe. The autoradiograph was scanned using a Macintosh IIsi computer and Macintosh One Scanner, and the brightness and contrast were adjusted to display differences in autoradiographic signals maximally. […]

p53 = p53 immunoperoxidase staining in fibroblasts; type: cell-based, human; settings: normal neonatal fibroblasts; 100 μM; within 24 hours
Protocol: The effect of pTpT on the level and intracellular distribution of p53 in normal neonatal fibroblasts was examined by immunoperoxidase staining using a p53-specific monoclonal antibody (mAb 421, Oncogene, Cambridge, Mass.). Preconfluent cultures were treated with either 100 μM pTpT or diluent for 24 hours before cell staining. Cells were first fixed for one minute in Histochoice fixative (Amresco, Solon, Ohio) followed by a five-minute rinse in PBS. p53 was detected using the Vectastain Elite ABC kit (Vector Laboratories, Burlingame, Calif.) and the p53-specific monoclonal antibody mAb 421.

[1] = system: UV-damaged CAT reporter plasmid in human keratinocytes; test: Repair of UV-damaged CAT reporter plasmid in keratinocytes; type: cell-based; settings: 100 μM for five days before transfection; plasmid 100 mJ/cm^2 UVB
Text: Expression of a UV-damaged reporter plasmid containing the bacterial chloramphenicol acetyltransferase (CAT) gene under the control of SV40 promoter and enhancer sequences was previously shown to detect decreased DNA repair capacity in human lymphocytes associated with aging and early-onset skin cancers. This reporter plasmid was used to measure the DNA repair capacity of normal neonatal human skin-derived fibroblasts and keratinocytes.
Keratinocytes from newborns were established as described (Stanulis-Praeger, B. M. and Gilchrest, B. A., J. Cell. Physiol. 139:116–124 (1989)) using a modification of the method of Rheinwald and Green (Gilchrest, B. A. et al., J. Invest. Dermatol. 101:666–672 (1993)). First-passage keratinocytes were maintained in a non-differentiating low Ca^2+ medium (K-Stim, Collaborative Biomedical Products, Bedford, Mass.). […] CAT enzyme activity was determined using the liquid scintillation counting protocol and components of the assay system kit. […] Protein concentration in the cell extracts was determined by the method of Bradford (Anal. Biochem. 72:248 […]). CAT activity was expressed as c.p.m./100 μg protein and is represented as percent activity of cells transfected with sham-irradiated, non-damaged, plasmid.

SOD2 = SOD2 western blot in fibroblasts; type: cell-based, human; settings: 100 μM
Protocol: Fibroblasts (newborn human) were maintained in Dulbecco's Modified Eagle Medium (DMEM) supplemented with 10% calf serum (CS) and 100 μM pTpT or diluent as control. Total cellular proteins were harvested at different intervals after stimulation and processed for western blot analysis. The blot was reacted with anti SOD2 antibodies (The Binding Site, Inc. San Diego, Calif.). […] Coomassie blue-stained residual bands on the gel confirmed uniform loading of the different lanes.

Substance: thymidine dinucleotide [pTpT]
- level of SDI 1 transcript (SDI 1 mRNA; H1299 transfected with wild-type p53 expression vector): inducible by addition of pTpT
- level of SDI 1 transcript (SDI 1 mRNA; p53-null H1299 cells): not affected by addition of pTpT
- intranuclear p53 (p53): an increase in intranuclear p53
- CAT activity relative to sham-irradiated transfected controls [1]: more than 50%
- SOD2 protein induction (SOD2): SOD2 induction was sustained at least through 32 hours

— patent publication US7033829B2, “Method to inhibit cell growth using oligonucleotides” (Trustees of Boston University, priority 2000, dated 2006)
